Results as given in PubChem BioAssay AID2060898 (Molecular Pharmacology Branch, DTP, NCI, 2025).

Test system: 616215-338-R-J1-PDC complex spheroid viability
Test: Anticancer human tumor 616215-338-R-J1-PDC patient-derived colon adenocarcinoma cell line growth inhibition [RAS]
Conditions: for IC50: curve of first compound; for viability, T/C: stronger effect = lower value
Outline: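 Tumour cells grown as complex spheroids with HUVEC endothelial cells and mesenchymal stem cells, treated with RAS pathway inhibitor combinations. Each agent spans half-log steps from near clinical Cmax, or 10 microM where Cmax is unknown.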
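Note: spheroids exposed to agents for seven days before viability readout.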
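Throughout, for viability, T/C: 100% = DMSO vehicle control viability.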

`C=CC(=O)Nc1cc(Nc2nccc(-c3cn(C)c4ccccc34)n2)c(OC)cc1N(C)CCN(C)C` + CCn1c(-c2cccnc2C(C)OC)c2c3cc(ccc31)N1CCOC(CC(NC(=O)C(C(C)C)N(C)C(=O)C3(F)CCN(C(=O)C#CC(C)(C)N(C)C)CC3)C(=O)N3CCCC(N3)C(=O)OCC(C)(C)C2)C1 was tested, and the IC50 (second compound 0.000949 µM) was greater than 1000 nM, the IC50 (second compound 0.003 µM) was greater than 1000 nM and the IC50 (second compound 0.00949 µM) was greater than 1000 nM. The IC50 (second compound 0.03 µM) was greater than 1000 nM, the IC50 (second compound 0.0949 µM) was greater than 1000 nM and the IC50 (second compound 0.3 µM) was greater than 1000 nM. For the same molecule, the viability, T/C (second compound 0.000949 µM, first compound 0.00316 µM) was 98.4%, the viability, T/C (second compound 0.000949 µM, first compound 0.01 µM) was 105% and the viability, T/C (second compound 0.000949 µM, first compound 0.0316 µM) was 116%. The viability, T/C (second compound 0.000949 µM, first compound 0.1 µM) was 103%, the viability, T/C (second compound 0.000949 µM, first compound 0.316 µM) was 102% and the viability, T/C (second compound 0.000949 µM, first compound 1 µM) was 68.2%. It also gave a viability, T/C (second compound 0.003 µM, first compound 0.00316 µM) of 103%, a viability, T/C (second compound 0.003 µM, first compound 0.01 µM) of 106% and a viability, T/C (second compound 0.003 µM, first compound 0.0316 µM) of 99.8%. The viability, T/C (second compound 0.003 µM, first compound 0.1 µM) was 112%, the viability, T/C (second compound 0.003 µM, first compound 0.316 µM) was 110% and the viability, T/C (second compound 0.003 µM, first compound 1 µM) was 66.2%. For the same molecule, the viability, T/C (second compound 0.00949 µM, first compound 0.00316 µM) was 100%, the viability, T/C (second compound 0.00949 µM, first compound 0.01 µM) was 99.6% and the viability, T/C (second compound 0.00949 µM, first compound 0.0316 µM) was 108%. The viability, T/C (second compound 0.00949 µM, first compound 0.1 µM) was 110%, the viability, T/C (second compound 0.00949 µM, first compound 0.316 µM) was 107% and the viability, T/C (second compound 0.00949 µM, first compound 1 µM) was 80%. It also gave a viability, T/C (second compound 0.03 µM, first compound 0.00316 µM) of 109%, a viability, T/C (second compound 0.03 µM, first compound 0.01 µM) of 105% and a viability, T/C (second compound 0.03 µM, first compound 0.0316 µM) of 100%. For the same molecule, the viability, T/C (second compound 0.03 µM, first compound 0.1 µM) was 110%, the viability, T/C (second compound 0.03 µM, first compound 0.316 µM) was 104% and the viability, T/C (second compound 0.03 µM, first compound 1 µM) was 62.7%. The viability, T/C (second compound 0.0949 µM, first compound 0.00316 µM) was 105%, the viability, T/C (second compound 0.0949 µM, first compound 0.01 µM) was 110% and the viability, T/C (second compound 0.0949 µM, first compound 0.0316 µM) was 111%. For the same molecule, the viability, T/C (second compound 0.0949 µM, first compound 0.1 µM) was 112%, the viability, T/C (second compound 0.0949 µM, first compound 0.316 µM) was 103% and the viability, T/C (second compound 0.0949 µM, first compound 1 µM) was 66.9%. For the same molecule, the viability, T/C (second compound 0.3 µM, first compound 0.00316 µM) was 97.1%, the viability, T/C (second compound 0.3 µM, first compound 0.01 µM) was 104% and the viability, T/C (second compound 0.3 µM, first compound 0.0316 µM) was 95.9%. For the same molecule, the viability, T/C (second compound 0.3 µM, first compound 0.1 µM) was 89.9%, the viability, T/C (second compound 0.3 µM, first compound 0.316 µM) was 97.2% and the viability, T/C (second compound 0.3 µM, first compound 1 µM) was 59%.
